From PubChem BioAssay AID256 (DTP/NCI, 2004)
Several values for one entry are separate records, joined by “and”; a condition that tells them apart may be missing. Identical values can stand only once. Toxic doses and inconclusive results are not listed. Rule for the calls: active = survival T/C of 150% or more; inactive = T/C below 125% in these data.

Test system: CD2F1 mice, L1210 leukemia ip, survival T/C
Assay: NCI In Vivo Anticancer Drug Screen. Data for tumor model L1210 Leukemia (intraperitoneal) in CD2F1 (CDF1) mice
Settings: higher = longer survival
Summary of the method: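 Compound-dosed mice with transplantable tumor versus matched vehicle controls; endpoint ratio T/C reported.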

[1] = endpoint: mean survival time, dose: 50.0 mg/kg/injection, schedule: Q04DX003 (ip), vehicle: saline
[2] = endpoint: mean survival time, dose: 100.0 mg/kg/injection, schedule: Q04DX003 (ip), vehicle: saline
[3] = endpoint: mean survival time, dose: 200.0 mg/kg/injection, schedule: Q04DX003 (ip), vehicle: saline
[4] = endpoint: mean survival time, dose: 100.0 mg/kg/injection, schedule: Q01DX001 (ip), vehicle: saline
[5] = endpoint: mean survival time, dose: 100.0 mg/kg/injection, schedule: Q01DX009 (ip), vehicle: saline
[6] = endpoint: mean survival time, dose: 200.0 mg/kg/injection, schedule: Q01DX001 (ip), vehicle: saline
[7] = endpoint: mean survival time, dose: 50.0 mg/kg/injection, schedule: Q01DX009 (ip), vehicle: saline with Tween-80
[8] = endpoint: mean survival time, dose: 100.0 mg/kg/injection, schedule: Q01DX009 (ip), vehicle: saline with Tween-80
[9] = endpoint: mean survival time, dose: 100.0 mg/kg/injection, schedule: Q04DX003 (ip), vehicle: saline with Tween-80
[10] = endpoint: mean survival time, dose: 200.0 mg/kg/injection, schedule: Q01DX009 (ip), vehicle: saline with Tween-80
[11] = endpoint: mean survival time, dose: 200.0 mg/kg/injection, schedule: Q04DX003 (ip), vehicle: saline with Tween-80
[12] = endpoint: mean survival time, dose: 400.0 mg/kg/injection, schedule: Q01DX009 (ip), vehicle: saline with Tween-80
[13] = endpoint: mean survival time, dose: 100.0 mg/kg/injection, schedule: Q01DX001 (ip), vehicle: saline with Tween-80
[14] = endpoint: mean survival time, dose: 200.0 mg/kg/injection, schedule: Q01DX001 (ip), vehicle: saline with Tween-80
[15] = endpoint: mean survival time, dose: 400.0 mg/kg/injection, schedule: Q01DX001 (ip), vehicle: saline with Tween-80
[16] = endpoint: mean survival time, dose: 400.0 mg/kg/injection, schedule: Q04DX003 (ip), vehicle: saline with Tween-80
[17] = endpoint: mean survival time, dose: 25.0 mg/kg/injection, schedule: Q01DX009 (ip), vehicle: saline with Tween-80

Measured: T/C

COC1OC2COC(C)(c3ccccc3)OC2C(O)C1[NH-].COC1OC2COC(C)(c3ccccc3)OC2C(O)C1[NH-].[Cl][Pt+2][Cl] (configuration not stated)
inactive: endpoint: mean survival time, dose: 12.5 mg/kg/injection, schedule: Q04DX003 (ip), vehicle: saline 93 % of control | endpoint: mean survival time, dose: 25.0 mg/kg/injection, schedule: Q04DX003 (ip), vehicle: saline 96 % of control | [1] 96 % of control | [2] 95 % of control | [3] 102 % of control

O=C1[O][Sb]23[O]C(=O)C([O]2)C(O)C(O)C2[O][Sb]4([O]C(=O)C([O]4)C(O)C(O)C1[O]3)[O]C2=O (configuration not stated)
inactive: endpoint: mean survival time, dose: 25.0 mg/kg/injection, schedule: Q01DX009 (ip), vehicle: saline 95 % of control | endpoint: mean survival time, dose: 50.0 mg/kg/injection, schedule: Q01DX001 (ip), vehicle: saline 97 % of control | endpoint: mean survival time, dose: 50.0 mg/kg/injection, schedule: Q01DX009 (ip), vehicle: saline 95 % of control | [1] 87 % of control | [4] 101 % of control | [5] 98 % of control | [2] 91 % of control | [6] 96 % of control

O=CNc1cc2ccccc2c2ccc3ccccc3c12
inactive: [7] 94 % of control | [8] 94 % of control | [9] 89 % of control | [10] 97 % of control | [11] 89 % of control

CO[C@]12[C@@H](COC(N)=O)C3=C(C(=O)C(C)=C(NCc4ccco4)C3=O)N1C[C@@H]1[C@H]2N1C (some centres not stated)
inactive: endpoint: mean survival time, dose: 1.5 mg/kg/injection, schedule: Q01DX001 (ip), vehicle: distilled water + Tween-80 104 % of control | endpoint: mean survival time, dose: 3.0 mg/kg/injection, schedule: Q01DX001 (ip), vehicle: distilled water + Tween-80 103 % of control and 104 % of control | endpoint: mean survival time, dose: 6.0 mg/kg/injection, schedule: Q01DX001 (ip), vehicle: distilled water + Tween-80 110 % of control and 111 % of control | endpoint: mean survival time, dose: 12.0 mg/kg/injection, schedule: Q01DX001 (ip), vehicle: distilled water + Tween-80 122 % of control | endpoint: mean survival time, dose: 36.0 mg/kg/injection, schedule: Q01DX001 (ip), vehicle: distilled water + Tween-80 121 % of control

CCOC(=O)CSCc1ccc(C(C)(C)C)cc1
inactive: [4] 96 % of control | [6] 98 % of control | endpoint: mean survival time, dose: 400.0 mg/kg/injection, schedule: Q01DX001 (ip), vehicle: saline 93 % of control

CC(=O)NS(=O)(=O)c1ccc(N=Cc2ccc3c(c2)OCO3)cc1
inactive: [8] 100 % of control | [10] 95 % of control | [12] 94 % of control

COC1OC2COC(c3ccccc3)OC2C(OS(C)(=O)=O)C1OS(C)(=O)=O (configuration not stated)
inactive: [13] 103 % of control | [14] 105 % of control | [15] 101 % of control

COc1ccc(CCNC(=O)Cc2ccc3c(c2)OCO3)cc1OC
inactive: [13] 92 % of control | endpoint: mean survival time, dose: 100.0 mg/kg/injection, schedule: Q04DX002 (ip), vehicle: saline with Tween-80 87 % of control | [14] 93 % of control | endpoint: mean survival time, dose: 200.0 mg/kg/injection, schedule: Q04DX002 (ip), vehicle: saline with Tween-80 97 % of control | [15] 94 % of control | endpoint: mean survival time, dose: 400.0 mg/kg/injection, schedule: Q04DX002 (ip), vehicle: saline with Tween-80 93 % of control

CC(S)CN (configuration not stated)
inactive: [5] 96 % of control | [2] 101 % of control | endpoint: mean survival time, dose: 200.0 mg/kg/injection, schedule: Q01DX009 (ip), vehicle: saline 94 % of control | [3] 98 % of control | endpoint: mean survival time, dose: 400.0 mg/kg/injection, schedule: Q01DX009 (ip), vehicle: saline 101 % of control | endpoint: mean survival time, dose: 400.0 mg/kg/injection, schedule: Q04DX003 (ip), vehicle: saline 104 % of control

O=[N+]([O-])O.[La]
inactive: [7] 90 % of control | [8] 97 % of control | [9] 92 % of control | [2] 97 % of control | [10] 92 % of control | [11] 93 % of control | [3] 98 % of control

CS(=O)(=O)c1nnc(S(C)(=O)=O)s1
inactive: endpoint: mean survival time, dose: 3.0 mg/kg/injection, schedule: Q01DX009 (ip), vehicle: saline sonified 104 % of control | endpoint: mean survival time, dose: 6.0 mg/kg/injection, schedule: Q01DX009 (ip), vehicle: saline sonified 102 % of control | endpoint: mean survival time, dose: 12.0 mg/kg/injection, schedule: Q01DX009 (ip), vehicle: saline sonified 113 % of control | endpoint: mean survival time, dose: 12.5 mg/kg/injection, schedule: Q04DX003 (ip), vehicle: saline sonified 104 % of control

CCCCCCCCCCC(Sc1n[nH]c(=O)[nH]c1=O)C(=O)OCC (configuration not stated)
inactive: endpoint: mean survival time, dose: 12.5 mg/kg/injection, schedule: Q01DX005 (ip), vehicle: distilled water + Tween-80 97 % of control | endpoint: mean survival time, dose: 25.0 mg/kg/injection, schedule: Q01DX005 (ip), vehicle: distilled water + Tween-80 97 % of control | endpoint: mean survival time, dose: 50.0 mg/kg/injection, schedule: Q01DX005 (ip), vehicle: distilled water + Tween-80 95 % of control | endpoint: mean survival time, dose: 100.0 mg/kg/injection, schedule: Q01DX005 (ip), vehicle: distilled water + Tween-80 95 % of control | endpoint: mean survival time, dose: 200.0 mg/kg/injection, schedule: Q01DX005 (ip), vehicle: distilled water + Tween-80 97 % of control

C1=CC(=P(c2ccccc2)(c2ccccc2)c2ccccc2)C=C1
inactive: [8] 98 % of control | [9] 94 % of control | [10] 100 % of control | [11] 95 % of control | endpoint: mean survival time, dose: 240.0 mg/kg/injection, schedule: Q01DX015 (ip), vehicle: saline 87 % of control | [12] 94 % of control | [16] 94 % of control | endpoint: mean survival time, dose: 480.0 mg/kg/injection, schedule: Q01DX015 (ip), vehicle: saline 87 % of control | endpoint: mean survival time, dose: 960.0 mg/kg/injection, schedule: Q01DX015 (ip), vehicle: saline 92 % of control

Clc1nc2nc[nH]c2nc1Cl
inactive: endpoint: mean survival time, dose: 25.0 mg/kg/injection, schedule: Q01DX009 (ip), vehicle: saline sonified 97 % of control | endpoint: mean survival time, dose: 50.0 mg/kg/injection, schedule: Q01DX009 (ip), vehicle: saline sonified 89 % of control | endpoint: mean survival time, dose: 100.0 mg/kg/injection, schedule: Q01DX009 (ip), vehicle: saline sonified 98 % of control

CCCCCCCCCCCCCCCCCC(=O)NN
inactive: [8] 93 % of control | [9] 91 % of control | [10] 104 % of control | [11] 96 % of control | endpoint: mean survival time, dose: 266.0 mg/kg/injection, schedule: Q01DX009 (ip), vehicle: saline with Tween-80 119 % of control | [16] 109 % of control | endpoint: mean survival time, dose: 600.0 mg/kg/injection, schedule: Q01DX009 (ip), vehicle: saline with Tween-80 119 % of control

CCCCCCCCCCCCCCCCOP(=O)(O)OCCCCCCCCCCCCCCCC
inactive: [17] 96 % of control | [7] 102 % of control | [8] 95 % of control

O=C(O)c1ccccc1SCCO
inactive: endpoint: mean survival time, dose: 100.0 mg/kg/injection, schedule: Q01DX001 (ip), vehicle: Klucel (hydroxypropylcellulose) (HPC) 93 % of control | endpoint: mean survival time, dose: 200.0 mg/kg/injection, schedule: Q01DX001 (ip), vehicle: Klucel (hydroxypropylcellulose) (HPC) 102 % of control | endpoint: mean survival time, dose: 400.0 mg/kg/injection, schedule: Q01DX001 (ip), vehicle: Klucel (hydroxypropylcellulose) (HPC) 104 % of control

CO[C@@]12[C@@H]3N[C@@H]3CN1C1=C(C(=O)C(Nc3nc(C)c(C)s3)=C(C)C1=O)[C@@H]2COC(N)=O
inactive: endpoint: median survival time, dose: 1.5 mg/kg/injection, schedule: Q01DX001 (ip), vehicle: distilled water + Tween-80 98 % of control and 101 % of control | endpoint: median survival time, dose: 3.0 mg/kg/injection, schedule: Q01DX001 (ip), vehicle: distilled water + Tween-80 120 % of control and 101 % of control and 102 % of control | endpoint: median survival time, dose: 6.0 mg/kg/injection, schedule: Q01DX001 (ip), vehicle: distilled water + Tween-80 123 % of control and 101 % of control (2×) | endpoint: median survival time, dose: 12.0 mg/kg/injection, schedule: Q01DX001 (ip), vehicle: distilled water + Tween-80 98 % of control and 101 % of control | endpoint: median survival time, dose: 24.0 mg/kg/injection, schedule: Q01DX001 (ip), vehicle: distilled water + Tween-80 121 % of control and 102 % of control and 106 % of control

Cc1nc2c(n1C)C(=O)c1ccccc1C2=O
inactive: [2] 101 % of control

CC1=CC2=C(C=O)C(=O)[C@](C)(O)[C@@H](O)C2=CO1
inactive: endpoint: mean survival time, dose: 12.5 mg/kg/injection, schedule: Q01DX009 (ip), vehicle: saline with Tween-80 114 % of control | [17] 111 % of control | [7] 122 % of control

O=C(O)/C=C(/CC(=O)O)C(=O)O
inactive: [2] 98 % of control | [3] 94 % of control

OC(c1ccc(Cl)cc1)c1ccc(Cl)cc1
inactive: [13] 105 % of control | [14] 90 % of control | [15] 109 % of control

O=C1CCC(=O)CC1
inactive: endpoint: mean survival time, dose: 100.0 mg/kg/injection, schedule: Q04DX002 (ip), vehicle: saline 111 % of control | endpoint: mean survival time, dose: 200.0 mg/kg/injection, schedule: Q04DX002 (ip), vehicle: saline 107 % of control | endpoint: mean survival time, dose: 400.0 mg/kg/injection, schedule: Q04DX002 (ip), vehicle: saline 107 % of control
